According to patent US20230322745A1, “FUSED TRICYCLIC DERIVATIVE AND PHARMACEUTICAL APPLICATION THEREOF” (CHIA TAI TIANQING PHARMACEUTICAL GROUP CO., LTD., priority 2020, published 2023):
Where a name gives a salt, the structure may show the parent alone. Read-outs that look alike come from different tables or passages of the source.

What was measured:
[1] = Pharmacokinetic evaluation in SD rats; type: in vivo; settings: male, rat, plasma; for clearance / AUC / half-life: 10% aqueous HPβCD; for clearance: read-out: Clearance rate for administration by intravenous injection; for bioavailability: intra-tracheal 5 mpk vs intravenous 2 mpk, read-out: Bioavailability F for intra-tracheal administration with a nebulizer needle; for half-life: read-out: Half life T1/2 for intra-tracheal administration with a nebulizer needle (converted)
Description: To test pharmacokinetics of test compounds in SD rats
SD rats (male, 200-250 g, 7-9 weeks old, Beijing Vital River Laboratory Animal Technology Co., Ltd.)
A formulation containing 10% aqueous HPβCD solution as a vehicle was administered by intravenous injection (2 mpk), and a formulation containing 10% aqueous HPβCD solution as a vehicle was administered by intra-tracheal administration (5 mpk) with a nebulizer needle. Before the animal experiment, all animals were fed normally; and all animals were given free access to water. Blood collection time points were as follows: intravenous administration group: 0.083 h, 0.25 h, 0.5 h, 1 h, 2 h, 4 h, 8 h, and 24 h; nebulizer needle administration group: 0.083 h, 0.25 h, 0.5 h, 1 h, 2 h, 4 h, 8 h, and 24 h.
Whole blood samples (0.25 mL) were collected via the jugular vein (or other suitable collection site) at prescribed time points, and all blood samples were added to labeled plastic centrifuge tubes containing a K2-EDTA anticoagulant. After blood collection, plasma was separated by centrifugation and placed in dry ice rapidly, and the samples were stored at low temperature. All samples were analyzed by LC-MS/MS with a limit of detection of 4 nM. The mean concentration of plasma was processed using a non-compartmental model of the pharmacokinetic software WinNonlin™ Version 6.3 (Pharsight, Mountain View, CA), and pharmacokinetic parameters were calculated by a linear log-trapezoidal method.

M2 receptor = M2 receptor (Homo sapiens (Human), UniProt P08172); test: M2 receptor affinity test (3H-NMS competition); type: binding
Sequence of M2 receptor (P08172 whole entry): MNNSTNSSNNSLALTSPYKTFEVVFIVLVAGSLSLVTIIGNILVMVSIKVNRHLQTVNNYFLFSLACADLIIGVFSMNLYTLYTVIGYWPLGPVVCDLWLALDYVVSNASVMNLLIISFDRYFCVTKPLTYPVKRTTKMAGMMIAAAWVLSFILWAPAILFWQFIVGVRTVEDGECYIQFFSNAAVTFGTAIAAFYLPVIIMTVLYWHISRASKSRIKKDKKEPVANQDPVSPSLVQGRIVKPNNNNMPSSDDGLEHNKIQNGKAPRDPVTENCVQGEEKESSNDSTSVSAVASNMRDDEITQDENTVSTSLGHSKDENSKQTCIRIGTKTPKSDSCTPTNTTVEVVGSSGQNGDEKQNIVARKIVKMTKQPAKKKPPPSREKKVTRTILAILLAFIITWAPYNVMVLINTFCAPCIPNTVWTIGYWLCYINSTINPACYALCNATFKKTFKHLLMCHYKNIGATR
Description: M2 receptor is a G protein-coupled receptor. In this experiment, the activity of test compounds against the M2 receptor in vitro was assayed by the competition of radioisotope labeled NMS and non-isotope labeled test compounds for an M2 binding site.
(§1) The M2 receptor membrane protein was prepared at 100 μg/mL by Biology Department of WuXi AppTec, and compounds were serially diluted in a 2.5-fold gradient in DMSO to obtain 10 concentrations. Radioisotope 3H-NMS was prepared at 0.2 nM in an assay buffer (10 mM HEPES, 1 mM MgCl2, pH 7.40). In formal testing, the experimental system comprising 1 μL of the test compound, 100 μL of M2 receptor membrane protein and 100 μL of radioisotope was shaken in a shaker at 300 RPM for 2 h at room temperature. A GF/C plate (Perkin Elmer, Cat No. 6055690) was prefoamed with 0.3% PEI, and the membrane proteins in the reaction solution were collected by filtration onto the GF/C plate. The signal values were read by a Perkin Elmer Microbeta2 instrument and the inhibition rate for each concentration point was shown as a percentage.

[2] = molecular target: β2 receptor (cells expressing human ADRB2 gene) (Homo sapiens (Human), UniProt P07550); test: Agonistic effect on β2 receptor by HTRF cAMP method; type: cell-based
Sequence of β2 receptor (cells expressing human ADRB2 gene) (P07550 whole entry): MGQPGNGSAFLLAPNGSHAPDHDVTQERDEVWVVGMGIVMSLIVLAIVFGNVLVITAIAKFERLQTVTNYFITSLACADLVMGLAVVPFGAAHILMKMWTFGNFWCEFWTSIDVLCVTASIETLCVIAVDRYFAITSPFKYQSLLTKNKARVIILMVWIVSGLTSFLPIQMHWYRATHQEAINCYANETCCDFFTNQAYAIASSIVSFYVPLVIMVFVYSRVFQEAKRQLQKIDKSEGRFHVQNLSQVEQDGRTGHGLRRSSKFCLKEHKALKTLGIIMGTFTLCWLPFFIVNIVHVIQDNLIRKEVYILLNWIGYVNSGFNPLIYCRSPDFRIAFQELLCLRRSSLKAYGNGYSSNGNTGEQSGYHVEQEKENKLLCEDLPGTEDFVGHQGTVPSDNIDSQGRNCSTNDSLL
Description: (§2) β2 receptor is a G protein-coupled receptor, which is mainly coupled with Gs protein, and can activate adenylate cyclase activity through the Gs protein after being activated by binding to the ligand, thereby increasing the level of intracellular cAMP. In this experiment, the agonistic activity of the compounds against the β2 receptor in vitro was assayed by the cAMP kit.
(§3) β2 cells (expressing human ADRB2 gene) from ICE Bioscience Inc. were grown under standard conditions. The cells were collected and diluted with 1× Stimulation Buffer, and 9 μL of the cell dilution was added to a white low-volume 384-well plate with 1000 cells seeded in each well. Compounds were serially diluted in DMSO in a 5-fold gradient to obtain 10 concentrations. Before testing, compounds that had been serially diluted in DMSO were subjected to 100-fold dilution with 1× Stimulation Buffer to obtain compound working solutions. The concentration of the vehicle DMSO was 0.1%. Eu-cAMP and ULight™-anti-cAMP were diluted to the working concentration with Detection buffer. 5 μL of Eu-cAMP diluent and 5 μL of ULight™-anti-cAMP diluent were sequentially added into corresponding experiment wells. After 1 h of incubation at room temperature, readings at 665 nm and 620 nm were measured under the excitation wavelength of 330 nm using a Biotek microplate reader. The activity of the compounds was obtained by plotting through Ratio (665/620) against the concentration of the compounds, fitting the curve by a nonlinear regression method using GraphPad Prism 7 software and calculating EC50.

[3] = molecular target: β1 receptor (cells expressing human ADRB1 gene) (Homo sapiens (Human), UniProt P08588); test: Agonistic effect on β1 receptor by HTRF cAMP method; type: cell-based
Sequence of β1 receptor (cells expressing human ADRB1 gene) (P08588 whole entry): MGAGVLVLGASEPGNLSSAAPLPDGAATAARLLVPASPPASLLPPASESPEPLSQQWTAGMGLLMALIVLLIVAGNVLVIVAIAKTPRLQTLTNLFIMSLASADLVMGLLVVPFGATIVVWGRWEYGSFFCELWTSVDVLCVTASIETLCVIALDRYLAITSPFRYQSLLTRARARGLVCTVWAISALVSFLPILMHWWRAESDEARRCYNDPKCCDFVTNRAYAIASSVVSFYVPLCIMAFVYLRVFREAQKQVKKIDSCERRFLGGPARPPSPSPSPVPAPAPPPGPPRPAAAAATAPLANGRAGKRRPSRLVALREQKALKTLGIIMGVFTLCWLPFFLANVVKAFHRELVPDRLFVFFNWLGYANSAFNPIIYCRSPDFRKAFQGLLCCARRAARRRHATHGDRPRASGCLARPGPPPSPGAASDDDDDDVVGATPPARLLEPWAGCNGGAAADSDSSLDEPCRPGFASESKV
Description: as §2, with “β1” for “β2”
as §3, with “β1” for “β2”, “ADRB1” for “ADRB2”, “4000” for “1000”

M3 receptor = M3 receptor (Homo sapiens (Human), UniProt P20309); test: M3 receptor affinity test (3H-NMS competition); type: binding
Sequence of M3 receptor (P20309 whole entry): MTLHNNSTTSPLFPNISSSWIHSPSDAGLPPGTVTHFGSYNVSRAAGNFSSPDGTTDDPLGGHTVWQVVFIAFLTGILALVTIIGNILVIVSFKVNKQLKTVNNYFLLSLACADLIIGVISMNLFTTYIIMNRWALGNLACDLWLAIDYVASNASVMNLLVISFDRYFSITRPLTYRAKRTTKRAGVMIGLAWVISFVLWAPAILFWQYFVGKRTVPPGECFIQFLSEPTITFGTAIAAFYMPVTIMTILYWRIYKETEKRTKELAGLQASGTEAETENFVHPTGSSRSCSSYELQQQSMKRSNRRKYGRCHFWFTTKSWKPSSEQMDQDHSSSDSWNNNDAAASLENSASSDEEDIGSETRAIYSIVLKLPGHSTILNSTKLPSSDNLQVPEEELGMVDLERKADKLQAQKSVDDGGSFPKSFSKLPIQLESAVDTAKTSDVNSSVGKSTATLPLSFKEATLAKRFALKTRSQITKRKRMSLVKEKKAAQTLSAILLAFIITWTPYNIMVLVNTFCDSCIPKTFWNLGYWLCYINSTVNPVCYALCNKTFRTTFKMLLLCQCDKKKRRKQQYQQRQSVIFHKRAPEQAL
Description: M3 receptor is a G protein-coupled receptor. In this experiment, the activity of test compounds against the M3 receptor in vitro was assayed by the competition of radioisotope labeled NMS and non-isotope labeled test compounds for an M3 binding site.
as §1, with “The experiment was performed by a radioisotope affinity assay. The M3” for “The M2”, “at 10” for “at 100”, “1” for “1 μL”, “of M3” for “of M2”

[4] = 2 mg/kg, intravenous injection 2 mpk
[5] = 2 mg/kg, intravenous injection 2 mpk, read-out: Concentration integration AUC for administration by intravenous injection
[6] = inhaled or intranasal, 5 mg/kg, intra-tracheal 5 mpk, read-out: Concentration integration AUC for intra-tracheal administration with a nebulizer needle
[7] = inhaled or intranasal, 5 mg/kg, intra-tracheal 5 mpk
[8] = HTRF cAMP, 1 h incubation at room temperature, read-out: EC50, agonistic activity against the β2 receptor in vitro
[9] = read-out: IC50, activity against the M3 receptor in vitro

Row | SMILES | EC50 [2, 8] | EC50 [3] | IC50 (M3 receptor; [9]) | also measured
1 | CN(CCCn1nnc2cc(CNC[C@H](O)c3ccc(O)c4[nH]c(=O)ccc34)ccc21)[C@H]1CC[C@H](OC(=O)C(O)(c2cccs2)c2cccs2)CC1 [Hydrofluoride salt of AZD8871, reference compound] |  |  |  | clearance [1, 4]: 35 mL/min/kg; AUC [1, 5]: 1.27 µM·h; bioavailability ([1]; inhaled or intranasal, 5 mg/kg): 76.7%; AUC [1, 6]: 2.44 µM·h; half-life [1, 7]: 30.9 min
2 | Cc1ccc(C(O)(C(=O)C[C@H]2CC[C@H](N(C)CCCn3nnc4cc(CNC[C@H](O)c5ccc(O)c6[nH]c(=O)ccc56)c5c(c43)CCC5)CC2)c2ccc(C)s2)s1 [Formate salt of compound 32] | 1.57 nM |  |  | IC50 (M2 receptor; 0.2 nM 3H-NMS, M2 receptor membrane protein, 2 h at room temperature, read-out: IC50, activity against the M2 receptor in vitro): 0.814 nM; EC50 ([3]; HTRF cAMP, 1 h incubation at room temperature, read-out: EC50, agonistic activity against the β1 receptor in vitro): 145 nM; IC50 (M3 receptor; 0.2 nM 3H-NMS, M3 receptor membrane protein, 2 h at room temperature, read-out: IC50, activity against the M3 receptor in vitro): 1.2 nM
3 | C[N+]1(CCCn2nnc3cc(CNC[C@H](O)c4ccc(O)c5[nH]c(=O)ccc45)c4c(c32)CCC4)CCC(OC(=O)C(O)(c2cccs2)c2cccs2)CC1 (stereo partly shown) [Hydrobromide salt of compound 30] |  | 94.9 nM |  | 
4 | CN(CCCn1nnc2cc(CNC[C@H](O)c3ccc(O)c4[nH]c(=O)ccc34)c3c(c21)CCC3)[C@H]1CC[C@H](OC(=O)C(O)(c2ccc(Cl)s2)c2ccc(Cl)s2)CC1 [Trifluoroacetate salt of compound 10] | 1.36 nM | 269 nM | 1.27 nM | 
5 | O=C(OC1CC2(C1)CN(CCCn1nnc3cc(CNC[C@H](O)c4ccc(O)c5[nH]c(=O)ccc45)c4c(c31)CCC4)C2)C(O)(c1cccs1)c1cccs1 [Formate salt of compound 2] | 0.889 nM | 157 nM | 0.347 nM | 
6 | O=C(OC1CC2(CCN(CCCn3nnc4cc(CNC[C@H](O)c5ccc(O)c6[nH]c(=O)ccc56)c5c(c43)CCC5)CC2)C1)C(O)(c1ccc(Cl)s1)c1ccc(Cl)s1 [Formate salt of compound 19] | 5.14 nM | 1440 nM | 0.281 nM | 
7 | CN(CCCn1nnc2cc(CNC[C@H](O)c3ccc(O)c4[nH]c(=O)ccc34)c3c(c21)CCC3)[C@H]1CC[C@H](OC(=O)C(O)(c2cccs2)c2cccs2)CC1 [Trifluoroacetate salt of compound 1] | 3.47 nM | 84.5 nM | 0.384 nM | IC50 (M2 receptor): 0.062 nM; clearance [1, 4]: 62.8 mL/min/kg; AUC [1, 5]: 0.681 µM·h; bioavailability ([1]; inhaled or intranasal, 5 mg/kg): 153%; AUC [1, 6]: 2.61 µM·h; half-life [1, 7]: 82.8 min
8 | O=C(OC1CCC2(CC1)CN(CCCn1nnc3cc(CNC[C@H](O)c4ccc(O)c5[nH]c(=O)ccc45)c4c(c31)CCC4)C2)C(O)(c1cccs1)c1cccs1 [Formate salt of compound 4] | 2.15 nM | 304 nM | 0.343 nM | 
9 | CN(CCCn1nnc2cc(CNC[C@H](O)c3ccc(O)c4[nH]c(=O)ccc34)c3c(c21)OCCO3)[C@H]1CC[C@H](OC(=O)C(O)(c2cccs2)c2cccs2)CC1 [Formate salt of compound 12] | 2.04 nM | 127 nM |  | 
10 | CN(CCCn1nnc2cc(CNC[C@H](O)c3ccc(O)c4[nH]c(=O)ccc34)c3c(c21)COC3)[C@H]1CC[C@H](OC(=O)C(O)(c2cccs2)c2cccs2)CC1 [Formate salt of compound 40] |  | 56.7 nM |  | IC50 (M2 receptor): 0.228 nM; EC50 [2]: 2.8 nM; IC50 (M3 receptor): 0.363 nM
11 | O=C(OCC1(O)CCN(CCCn2nnc3cc(CNC[C@H](O)c4ccc(O)c5[nH]c(=O)ccc45)c4c(c32)CCC4)CC1)C(O)(c1cccs1)c1cccs1 [Formate salt of compound 31] |  |  | 0.655 nM | 
12 | CN(CCCn1nnc2cc(CNC[C@H](O)c3ccc(O)c4[nH]c(=O)ccc34)c3c(c21)OCO3)[C@H]1CC[C@H](OC(=O)C(O)(c2cccs2)c2cccs2)CC1 [Formate salt of compound 33] |  | 53.1 nM |  | IC50 (M2 receptor): 0.153 nM; EC50 [2]: 0.742 nM; IC50 (M3 receptor): 0.494 nM
13 | Cn1ncc2c(CNC[C@H](O)c3ccc(O)c4[nH]c(=O)ccc34)cc3nnn(CCCN(C)[C@H]4CC[C@H](OC(=O)C(O)(c5cccs5)c5cccs5)CC4)c3c21 [Compound 11] | 1.12 nM | 33.7 nM | 0.638 nM | 
14 | CN(CCCn1cnc2cc(CNC[C@H](O)c3ccc(O)c4[nH]c(=O)ccc34)c3c(c21)CCC3)[C@H]1CC[C@H](OC(=O)C(O)(c2cccs2)c2cccs2)CC1 [Formate salt of compound 41] |  | 229 nM |  | IC50 (M2 receptor): 0.268 nM; EC50 [2]: 13.8 nM; IC50 (M3 receptor): 0.201 nM
